Measurements: article PMC9822553 (iScience, 2023)

How the values were obtained:
Assay type in all cases: cell-based
SARS-CoV-2 variant G614 [1] = test system: SARS-CoV-2 variant G614
SARS-CoV-2 variant G614 [2] = test system: SARS-CoV-2 variant G614; remark: listed apart in the source
SARS-CoV-2 strain FFM3 = test: microbe, parasite or virus in culture; conditions: Severe acute respiratory syndrome coronavirus 2, read-out: IC50 concentration

Q: What does the source list for `C[C@H](NC(=O)C(=O)Nc1ccccc1C(C)(C)C)C(=O)N[C@@H](CC(=O)O)C(=O)COc1c(F)c(F)cc(F)c1F` [emricasan]?
A: effect on caspase 3/7 activity (SARS-CoV-2 variant G614 [1]): suppressing caspase 3/7 activity; effect on SARS-CoV-2 replication and CPE formation (SARS-CoV-2 variant G614 [2]): did not interfere with SARS-CoV-2 replication and CPE formation

Q: Which IC50 (SARS-CoV-2 strain FFM3) does the source give for `CCC(CC)COC(=O)[C@H](C)N[P@](=O)(OC[C@H]1O[C@@](C#N)(c2ccc3c(N)ncnn23)[C@H](O)[C@@H]1O)Oc1ccccc1` [remdesivir] here?
A: 500 nM
